Source: US20240287052A1, “NOVEL OXAZOLE DERIVATIVE AND PHARMACEUTICAL COMPOSITION FOR PREVENTING OR TREATING ALLERGIC DISEASES COMPRISING THE SAME” (AZCURIS CO., LTD., priority 2021, published 2024)
Read-outs that look alike come from different tables or passages of the source.

Legend:
[1] = system: IL-6 secretion in the human mast cell line HMC 1.1; assay: IL-6 production inhibition assay (IL-33 stimulated HMC 1.1 cells, IL-6 ELISA); type: cell-based; details: for inhibition at 0.1 µM: 0.1 μM compound, read-out: Inhibition of hIL-6 production (%) 0.1 μM; for inhibition at 0.1 µM / inhibition at 1 µM / inhibition at 10 µM: 24 hours; for inhibition at 1 µM: 1 μM compound, read-out: Inhibition of hIL-6 production (%) 1 μM; for inhibition at 10 µM: 10 μM compound, read-out: Inhibition of hIL-6 production (%) 10 μM; for EC50: read-out: Inhibition of hIL-6 production EC50
Description: Human mast cell line HMC 1.1 cells were cultured in medium (Iscove's Modified Dulbecco's Medium, IMDM, HyClone) supplemented with […] fetal bovine serum (FBS, HyClone) and 1% antibiotics and maintained at 37° C. with 5% CO2.
HMC 1.1 cells, which are non-adherent cells, were cultured in 0.5 mL of culture medium containing 200 nM of IL-33 wild type human recombinant protein after centrifugation of cells in culture flasks filled to […] capacity and incubated for 24 hours with […], 10 μM, 25 μM, 30 μM or 50 μM of Example compound.
Medium was harvested by centrifugation (2,000×g, 5 min) and stored at −80° C. until ELISA assay.
Experiments were performed according to the protocol using the Human IL-6 ELISA kit (abCam).
The average of the three values obtained in triplicate was calculated and the amount of IL-6 secretion was measured using a standard curve. The measured IL-6 secretion was converted to 100% based on the vehicle treatment sample value to obtain the vehicle %.

[2] = system: Human liver cancer cell line HepG2 cells; assay: Cellular viability, WST-8 assay, without or with human liver microsomes; type: cell-based; details: for Cellular viability (%) (+) microsome: HepG2, with human liver microsomes; for Cellular viability (%) (−) microsome: HepG2, without human liver microsomes
Description: (§1) Human liver cancer cell line HepG2 cells were cultured in a medium (high glucose Dulbecco's Modified Eagle Medium, DMEM, HyClone) supplemented with 10% fetal bovine serum (FBS, HyClone) and 1% antibiotic in a thermostat maintained at 37° C. with 5% CO2.
(§2) HepG2 cells, which are adherent cells, were […] or presence of human liver microsomes (Gibco) and NADPH regenerating system.
(§3) Cell cultures were exchanged using […] of medium (high glucose Dulbecco's Modified Eagle Medium, DMEM, HyClone) and incubated for 24 hours.
(§4) After adding 10 μL of WST-8 (abCam), the absorbance was obtained at 460 nm after 5 seconds of orbital shaking with a microplate reader (Tecan, Spark©) 2 hours later.
(§5) The mean of the three values obtained in triplicate was calculated and expressed as % cellular viability compared to vehicle treatment.

[3] = biological target: T1, IL33 and ST2 binding (Homo sapiens, UniProt O95760);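 further: plate ELISA with coated Flag-tagged human IL-33 and His-tagged human ST2, bound ST2 detected by anti-His HRP and TMB absorbance at 450 nm, 2 h compound incubation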
T1 sequence (O95760 112-270 limits assumed): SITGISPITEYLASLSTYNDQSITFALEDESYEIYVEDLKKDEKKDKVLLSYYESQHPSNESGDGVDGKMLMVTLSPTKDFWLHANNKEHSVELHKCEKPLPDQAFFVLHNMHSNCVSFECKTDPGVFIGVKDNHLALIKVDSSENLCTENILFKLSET

[4] = biological target: T1, IL33 and ST2 binding; assay: biochemical
[5] = Cellular viability, WST-8 assay, without or with human liver microsomes; type: cell-based
Description: as §1, §2, §3, §4, §5

[6] = HepG2, with human liver microsomes, read-out: CC50 (μM) (+) microsome
[7] = HepG2 cells, HepG2, without human liver microsomes, read-out: CC50 (μM) (−) microsome

EC50 [1] [µM]	inhibition ([3]; 30 µM) [%]	inhibition ([3]; 100 µM) [%]	Structure (SMILES)	inhibition at 1 µM [1] [%]	inhibition at 10 µM [1] [%]	Cellular viability (%) (+) microsome ([2]; at 100 μM) [at %]	Cellular viability (%) (−) microsome ([2]; at 100 μM) [at %]	Cellular viability (%) (+) microsome ([2]; at 160 μM) [at %]	Cellular viability (%) (−) microsome ([2]; at 160 μM) [at %]	further results
0.23	110	109	CCOC(=O)c1nc(-c2ccc(C(F)(F)F)cc2)oc1-c1ccccc1 [Compound 31, Ethyl 5-phenyl-2-(4-(trifluoromethyl)phenyl)oxazole-4-carboxylate]	56	69					inhibition at 0.1 µM [1]: 46%; Cellular viability (%) (+) microsome ([2]; at 135 μM): 66 at %; Cellular viability (%) (−) microsome ([2]; at 135 μM): 83 at %; IC50 [4]: 0.78 µM
	108	108	CCOC(=O)c1nc(-c2ccc(C(F)(F)F)cc2)oc1-c1ccc([N+](=O)[O-])cc1 [Compound 34, Ethyl 5-(4-nitrophenyl)-2-(4-(trifluoromethyl)phenyl)oxazole-4-carboxylate]			85	87			IC50 [4]: 0.91 µM
0.09	115	116	CCOC(=O)c1nc(-c2ccc(C(F)(F)F)cc2)oc1-c1cccc(C#N)c1 [Compound 55, Ethyl 5-(3-cyanophenyl)-2-(4-(trifluoromethyl)phenyl)oxazole-4-carboxylate]	45	52	91	90			
0.49			CCOC(=O)c1nc(-c2ccc(SC)cc2)oc1-c1ccccc1 [Compound 90, Ethyl 2-(4-(methylthio)phenyl)-5-phenyloxazole-4-carboxylate]	54	55					inhibition at 0.1 µM [1]: 33%; CC50 at 24 h [5, 6]: 40.8 µM; CC50 at 24 h [5, 7]: 14 µM; Cellular viability (%) (+) microsome ([2]; at 135 μM): 74 at %; Cellular viability (%) (−) microsome ([2]; at 135 μM): 53 at %
	-8	5	CN(C)CCNC(=O)c1nc(-c2ccc(F)c(F)c2)oc1-c1ccccc1 [Compound 231, 2-(3,4-Difluorophenyl)-N-(2-(dimethylamino)ethyl)-5-phenyloxazole-4-carboxamide]							Cellular viability (%) (+) microsome ([2]; at 50 μM): 29 at %; Cellular viability (%) (−) microsome ([2]; at 50 μM): 17 at %
3.7	7	70	CN(C)CCNC(=O)c1nc(-c2cccc(Cl)c2)oc1-c1ccccc1 [Compound 240, 2-(3-Chlorophenyl)-N-(2-(dimethylamino)ethyl)-5-phenyloxazole-4-carboxamide]	6	44	50	45			CC50 at 24 h [5, 6]: 6.36 µM; CC50 at 24 h [5, 7]: 5.46 µM
0.86	31	105	CSc1ccc(-c2nc(C(=O)NCCN(C)C)c(-c3ccccc3)o2)cc1 [Compound 271, N-(2-(Dimethylamino)ethyl)-2-(4-(methylthio)phenyl)-5-phenyloxazole-4-carboxamide]	14	69	52	45			CC50 at 24 h [5, 6]: 6.12 µM; CC50 at 24 h [5, 7]: 3.74 µM
0.13	95		CCNC(=O)c1nc(-c2ccc(C(F)(F)F)cc2)oc1-c1ccccc1 [Compound 294, N-Ethyl-5-phenyl-2-(4-(trifluoromethyl)phenyl)oxazole-4-carboxamide]	88	94			90	95	inhibition at 0.1 µM [1]: 50%
0.11	106		CCNC(=O)c1nc(-c2ccc(C(F)(F)F)cc2)oc1-c1cccnc1 [Compound 307, N-Ethyl-5-(pyridin-3-yl)-2-(4-(trifluoromethyl)phenyl)oxazole-4-carboxamide]	69	79			108	105	inhibition at 0.1 µM [1]: 61%
0.35	47		CCNC(=O)c1nc(-c2ccc(SC)cc2)oc1-c1ccccc1 [Compound 316, N-Ethyl-2-(4-(methylthio)phenyl)-5-phenyloxazole-4-carboxamide]	69	77			100	84	inhibition at 0.1 µM [1]: 25%

Second part, the compound before the results:

Structure (SMILES)	EC50 [1] [µM]	inhibition ([3]; 30 µM) [%]	inhibition ([3]; 100 µM) [%]	inhibition at 1 µM [1] [%]	inhibition at 10 µM [1] [%]	Cellular viability (%) (+) microsome ([2]; at 100 μM) [at %]	Cellular viability (%) (−) microsome ([2]; at 100 μM) [at %]	Cellular viability (%) (+) microsome ([2]; at 160 μM) [at %]	Cellular viability (%) (−) microsome ([2]; at 160 μM) [at %]	further results
COc1ccc(-c2nc(C(=O)NCCN(C)C)c(-c3ccc([N+](=O)[O-])cc3)o2)cc1 [Compound 217, N-(2-(Dimethylamino)ethyl)-2-(4-methoxyphenyl)-5-(4-nitrophenyl)oxazole-4-carboxamide]		-38	-51			34	19			
CN1CCN(CCNC(=O)c2nc(-c3cc(F)cc(F)c3)oc2-c2ccccc2[N+](=O)[O-])CC1 [Compound 238, 2-(3,5-Difluorophenyl)-N-(2-(4-methylpiperazin-1-yl)ethyl)-5-(2-nitrophenyl)oxazole-4-carboxamide]	6.3	40	103	14	45	53	49			CC50 at 24 h [5, 6]: 21.3 µM; CC50 at 24 h [5, 7]: 19 µM
CN(C)CCN1CCN(C(=O)c2nc(-c3ccc(Cl)cc3)oc2-c2ccccc2[N+](=O)[O-])CC1 [Compound 248, (2-(4-Chlorophenyl)-5-(2-nitrophenyl)oxazol-4-yl)(4-(2-(dimethylamino)ethyl)piperazin-1-yl)methanone]		33	63							Cellular viability (%) (+) microsome ([2]; at 50 μM): 31 at %; Cellular viability (%) (−) microsome ([2]; at 50 μM): 19 at %
CC(=O)NCCNC(=O)c1nc(-c2ccc(C(F)(F)F)cc2)oc1-c1ccccc1[N+](=O)[O-] [Compound 285, N-(2-acetamidoethyl)-5-(2-nitrophenyl)-2-(4-(trifluoromethyl)phenyl)oxazole-4-carboxamide]		73	72							Cellular viability (%) (+) microsome ([2]; at 30 μM): 59 at %; Cellular viability (%) (−) microsome ([2]; at 30 μM): 54 at %
CCCNC(=O)c1nc(-c2ccc(C(F)(F)F)cc2)oc1-c1cccnc1 [Compound 308, N-Propyl-5-(pyridin-3-yl)-2-(4-(trifluoromethyl)phenyl)oxazole-4-carboxamide]				56	62			29	27	
CCCNC(=O)c1nc(-c2ccc(SC)cc2)oc1-c1ccccc1 [Compound 317, 2-(4-(Methylthio)phenyl)-5-phenyl-N-propyloxazole-4-carboxamide]				44	43			89	47	
CCNC(=O)c1nc(-c2ccc(C(F)(F)F)cc2)oc1-c1cc(O)cc(O)c1 [Compound 322, 5-(3,5-Dihydroxyphenyl)-N-ethyl-2-(4-(trifluoromethyl)phenyl)oxazole-4-carboxamide]				86	73			90	63	
CCNC(=O)c1nc(-c2ccc(C(F)(F)F)cc2)oc1-c1cc(O)c(O)c(O)c1 [Compound 323, N-Ethyl-2-(4-(trifluoromethyl)phenyl)-5-(3,4,5-trihydroxyphenyl)oxazole-4-carboxamide]				45	84			77	63	
